Results: patent US9980943B2, “Methods of treating muscular dystrophy” (BOARD OF REGENTS OF THE NEVADA SYSTEM OF HIGHER EDUCATION, …, priority 2013, dated 2018)

How the values were obtained:
Format in all cases: cell-based, mouse
[1] = system: α7 integrin (LacZ reporter in α7βgal+/− myoblasts); assay: Myoblast α7+/LacZ integrin FDG assay (Burkin assay in myoblasts, 96-well); details: α7+/LacZ myoblasts, 96-well
[2] = system: β-galactosidase in CMV-LacZ C2C12 myotubes; assay: CMV-LacZ secondary screen in C2C12 myotubes (β-Gal stabilizing assay); details: for CMV-LACZ in Myotubes (β-galactosidase activity relative to DMSO): CMV-LacZ C2C12 myotubes, 96-well format; for CMV-LACZ in Myotubes, signal relative to DMSO: C2C12 CMV-LacZ myotubes, fold relative to DMSO
Summary of the method: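 A secondary screen identifies compounds that stabilize β-gal independently of the native promoter, using CMV-LacZ C2C12 cells. Curves span 0.5–40 μM at six levels, in duplicate.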

[3] = system: α7 integrin (LacZ reporter in α7+/LacZ myotubes); assay: Myotube α7 integrin FDG assay (Burkin assay in myotubes, 96-well); details: myotubes

Row | SMILES | Burkin Assay in Myoblasts, value relative to DMSO ([1]; 0.5 uM) | Burkin Assay in Myoblasts, value relative to DMSO ([1]; 1 uM) | Burkin Assay in Myoblasts, value relative to DMSO ([1]; 5 uM) | Burkin Assay in Myoblasts, value relative to DMSO ([1]; 10 uM) | Burkin Assay in Myoblasts, value relative to DMSO ([1]; 20 uM) | Burkin Assay in Myoblasts, value relative to DMSO ([1]; 40 uM) | CMV-LACZ in Myotubes (β-galactosidase activity relative to DMSO) ([2]; 5 uM) | CMV-LACZ in Myotubes (β-galactosidase activity relative to DMSO) ([2]; 10 uM) | CMV-LACZ in Myotubes (β-galactosidase activity relative to DMSO) ([2]; 20 uM) | CMV-LACZ in Myotubes (β-galactosidase activity relative to DMSO) ([2]; 40 uM) | Burkin Assay in Myotubes (signal relative to DMSO) ([3]; 0.5 uM) | Burkin Assay in Myotubes (signal relative to DMSO) ([3]; 1 uM) | Burkin Assay in Myotubes (signal relative to DMSO) ([3]; 5 uM) | Burkin Assay in Myotubes (signal relative to DMSO) ([3]; 10 uM) | Burkin Assay in Myotubes (signal relative to DMSO) ([3]; 20 uM) | Burkin Assay in Myotubes (signal relative to DMSO) ([3]; 40 uM) | CMV-LACZ in Myotubes, signal relative to DMSO ([2]; 5 uM) | CMV-LACZ in Myotubes, signal relative to DMSO ([2]; 10 uM) | CMV-LACZ in Myotubes, signal relative to DMSO ([2]; 20 uM) | CMV-LACZ in Myotubes, signal relative to DMSO ([2]; 40 uM) | also measured
1 | COc1cccc(N2C(=O)CC(N3CCc4ccccc4C3)C2=O)c1 (centres unmarked) [MLS000769322-01] | 0.9535 | 0.9354 | 0.9653 | 1.0771 | 1.006 | 0.955 | 0.8609 | 1.02 | 1.118 | 1.091 | 0.9609 | 1.055 | 1.1195 | 1.165 | 1.067 | 1.019 |  |  |  |  | 
2 | CCNC(=O)CSc1nc(-c2ccc(F)cc2)cs1 [MLS000772194-01] | 1.096 | 1.059 | 1.055 | 1.082 | 1.098 | 1.149 |  |  |  |  | 0.9782 | 0.9192 | 0.9654 | 1.072 | 0.9904 | 0.7651 | 1.068 | 0.9234 | 1.056 | 0.9968 | 
3 | CCOc1ccc(NC(=O)CN2C(=O)NC(CCSC)C2=O)cc1 (centres unmarked) [MLS000772430-01] |  |  |  |  |  |  | 0.8183 | 0.9094 | 0.8956 | 1.037 |  |  |  |  |  |  |  |  |  |  | fold induction at 0.5 µM ([1]; Mus musculus, Myoblast, 48 h, 0.5 uM, read-out: Burkin Assay in Myoblasts, value relative to DMSO): 0.973; fold induction at 1 µM ([1]; Mus musculus, Myoblast, 48 h, 1 uM, read-out: Burkin Assay in Myoblasts, value relative to DMSO): 0.936; fold induction at 5 µM ([1]; Mus musculus, Myoblast, 48 h, 5 uM, read-out: Burkin Assay in Myoblasts, value relative to DMSO): 1.01; fold induction at 10 µM ([1]; Mus musculus, Myoblast, 48 h, 10 uM, read-out: Burkin Assay in Myoblasts, value relative to DMSO): 1.05; fold induction at 20 µM ([1]; Mus musculus, Myoblast, 48 h, 20 uM, read-out: Burkin Assay in Myoblasts, value relative to DMSO): 0.881; fold induction at 40 µM ([1]; Mus musculus, Myoblast, 48 h, 40 uM, read-out: Burkin Assay in Myoblasts, value relative to DMSO): 0.896; fold induction at 0.5 µM ([3]; Mus musculus, Myotube, 0.5 uM, read-out: Burkin Assay in Myotubes (signal relative to DMSO)): 1.03; fold induction at 1 µM ([3]; Mus musculus, Myotube, 1 uM, read-out: Burkin Assay in Myotubes (signal relative to DMSO)): 1.28; fold induction at 5 µM ([3]; Mus musculus, Myotube, 5 uM, read-out: Burkin Assay in Myotubes (signal relative to DMSO)): 1.04; fold induction at 10 µM ([3]; Mus musculus, Myotube, 10 uM, read-out: Burkin Assay in Myotubes (signal relative to DMSO)): 1.25; fold induction at 20 µM ([3]; Mus musculus, Myotube, 20 uM, read-out: Burkin Assay in Myotubes (signal relative to DMSO)): 1.26; fold induction at 40 µM ([3]; Mus musculus, Myotube, 40 uM, read-out: Burkin Assay in Myotubes (signal relative to DMSO)): 1.05
4 | CCNC(=O)COC(=O)c1cc(-c2ccco2)nc2ccccc12 [MLS000772580-01] | 0.8487 | 0.9736 | 0.8554 | 0.8513 | 0.7938 | 0.7251 |  |  |  |  | 0.851 | 0.8999 | 1.323 | 0.9474 | 0.9413 | 0.8535 | 0.8986 | 1.0933 | 1.029 | 1.088 | 
5 | O=C(Nc1ccccc1)Nc1ccc(Cl)c(S(=O)(=O)N2CCOCC2)c1 [MLS000773700-01] | 0.9335 | 1.0257 | 0.9059 | 0.8657 | 0.9227 | 0.8721 | 1.126 | 1.1166 | 0.929 | 0.4092 | 1.008 | 1.019 | 0.7118 | 0.9516 | 0.9895 | 0.472 |  |  |  |  | 
6 | CN(C)S(=O)(=O)c1ccc(C(=O)Nc2nc3ccccc3[nH]2)cc1 [MLS000774940-01] | 0.9309 | 0.8928 | 1.095 | 1.043 | 0.858 | 0.7761 | 0.954 | 0.8604 | 1.171 | 1.005 | 0.9469 | 0.9777 | 1.01 | 0.9908 | 1.084 | 0.878 |  |  |  |  | 
7 | Cc1ccc(N(CCC(=O)O)S(=O)(=O)c2cccc(C(F)(F)F)c2)cc1 [MLS000775793-01] | 1.103 | 1.076 | 1.109 | 1.076 | 0.9292 | 0.9895 |  |  |  |  | 0.9391 | 0.8833 | 0.8722 | 0.6224 | 0.9965 | 0.9508 | 0.855 | 1.012 | 0.9323 | 1.021 | 
8 | O=C(O)CCCNC(=O)CCn1nnc2ccccc2c1=O [MLS000806880-01] |  |  |  |  |  |  |  |  |  |  |  |  |  |  |  |  | 0.9654 | 1.13 | 0.9145 | 1.0655 | Burkin Assay in Myoblasts, signal relative to DMSO ([1]; 0.5 uM): 1.097; Burkin Assay in Myoblasts, signal relative to DMSO ([1]; 1 uM): 1.129; Burkin Assay in Myoblasts, signal relative to DMSO ([1]; 5 uM): 1.009; Burkin Assay in Myoblasts, signal relative to DMSO ([1]; 10 uM): 0.9524; Burkin Assay in Myoblasts, signal relative to DMSO ([1]; 20 uM): 0.9957; Burkin Assay in Myoblasts, signal relative to DMSO ([1]; 40 uM): 1.056; Burkin Assay in Myotubes, α7 integrin LacZ reporter signal relative to DMSO ([3]; 0.5 uM): 0.735; Burkin Assay in Myotubes, α7 integrin LacZ reporter signal relative to DMSO ([3]; 1 uM): 0.8731; Burkin Assay in Myotubes, α7 integrin LacZ reporter signal relative to DMSO ([3]; 5 uM): 0.9094; Burkin Assay in Myotubes, α7 integrin LacZ reporter signal relative to DMSO ([3]; 10 uM): 0.996; Burkin Assay in Myotubes, α7 integrin LacZ reporter signal relative to DMSO ([3]; 20 uM): 1.057; Burkin Assay in Myotubes, α7 integrin LacZ reporter signal relative to DMSO ([3]; 40 uM): 0.9353
